Reference: ChEMBL document CHEMBL5465560, “Selectivity Literature for EUbOPEN Chemogenomic Library” (2024)

Experiments:
[1] = molecular target: P2Y purinoceptor 2 (Homo sapiens) (UniProt P41231); test: Selectivity interaction (Eurofins CEREP Diversity Profile (receptors and ion channels)) EUB0000279b P2RY2; details: at 10 µM
[2] = molecular target: T1, Histone-lysine N-methyltransferase NSD3 (Homo sapiens) (UniProt Q9BZ95); test: Selectivity interaction (Methyltransferase screen (radiometric assays, panel of 8 PRMTs, 21 protein lysine methyltransferases, 3 DNA methyltransferases, and one RNA methyltransferase)) EUB0000272b NSD3
T1 sequence (whole entry): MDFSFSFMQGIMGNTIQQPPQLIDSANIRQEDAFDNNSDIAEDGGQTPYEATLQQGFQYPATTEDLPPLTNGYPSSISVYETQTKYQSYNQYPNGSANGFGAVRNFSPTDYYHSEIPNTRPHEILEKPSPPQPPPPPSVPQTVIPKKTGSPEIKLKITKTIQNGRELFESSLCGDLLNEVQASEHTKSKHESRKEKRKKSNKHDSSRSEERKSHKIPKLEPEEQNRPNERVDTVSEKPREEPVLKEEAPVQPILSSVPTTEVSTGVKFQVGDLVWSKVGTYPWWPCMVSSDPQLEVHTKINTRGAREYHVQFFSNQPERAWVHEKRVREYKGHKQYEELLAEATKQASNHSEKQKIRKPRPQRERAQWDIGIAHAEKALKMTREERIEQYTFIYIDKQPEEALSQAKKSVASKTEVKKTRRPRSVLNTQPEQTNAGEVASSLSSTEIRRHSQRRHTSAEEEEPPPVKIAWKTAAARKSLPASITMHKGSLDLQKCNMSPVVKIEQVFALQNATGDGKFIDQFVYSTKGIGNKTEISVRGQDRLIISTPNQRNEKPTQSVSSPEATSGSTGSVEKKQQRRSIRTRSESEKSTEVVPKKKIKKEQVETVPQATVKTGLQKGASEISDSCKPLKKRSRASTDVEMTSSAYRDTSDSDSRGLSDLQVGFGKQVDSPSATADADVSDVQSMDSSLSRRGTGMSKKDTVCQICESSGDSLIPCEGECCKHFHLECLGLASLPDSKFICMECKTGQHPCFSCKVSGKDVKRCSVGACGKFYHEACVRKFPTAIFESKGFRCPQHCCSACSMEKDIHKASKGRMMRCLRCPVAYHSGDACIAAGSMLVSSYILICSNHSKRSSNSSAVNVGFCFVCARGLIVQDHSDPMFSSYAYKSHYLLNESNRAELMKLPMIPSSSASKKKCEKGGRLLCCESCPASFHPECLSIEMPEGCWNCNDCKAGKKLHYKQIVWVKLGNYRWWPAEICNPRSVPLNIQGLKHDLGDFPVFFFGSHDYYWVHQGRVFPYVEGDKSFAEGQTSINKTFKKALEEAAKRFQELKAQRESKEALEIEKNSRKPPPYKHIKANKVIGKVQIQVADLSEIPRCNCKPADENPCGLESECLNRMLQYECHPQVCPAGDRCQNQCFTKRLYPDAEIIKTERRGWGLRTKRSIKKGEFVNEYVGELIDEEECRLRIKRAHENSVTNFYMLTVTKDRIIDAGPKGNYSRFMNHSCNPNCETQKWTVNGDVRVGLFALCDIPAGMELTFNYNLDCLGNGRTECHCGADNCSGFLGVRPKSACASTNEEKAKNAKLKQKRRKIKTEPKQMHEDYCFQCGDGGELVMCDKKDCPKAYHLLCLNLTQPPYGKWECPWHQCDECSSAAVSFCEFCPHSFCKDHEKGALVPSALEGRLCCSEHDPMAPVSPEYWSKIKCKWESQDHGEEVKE

Activated CDC42 kinase 1 = Activated CDC42 kinase 1 (Homo sapiens, UniProt Q07912); test: Selectivity interaction (Ambit KINOMEscan and KiNATiv profiling in Jurkat cells) EUB0000090b TNK2; assay type: cell-based; details: at 1 µM
[3] = molecular target: Macrophage-stimulating protein receptor (Homo sapiens, UniProt Q04912); test: Selectivity interaction (KinomeScan (DiscoverX)) EUB0000618a MST1R; details: at 10 µM
[4] = molecular target: Calcium/calmodulin-dependent protein kinase type 1D (Homo sapiens) (UniProt Q8IU85); test: Selectivity interaction (ActivX KiNativ screen (kinase selectivity in THP-1 cell lysates)) EUB0000639a CAMK1D; assay type: subcellular; details: lysate, at 0.04 µM
[5] = molecular target: Casein kinase I isoform gamma-2 (Homo sapiens) (UniProt P78368); test: Selectivity interaction (ActivX KiNativ screen (kinase selectivity in THP-1 cell lysates)) EUB0000639a CSNK1G2; assay type: subcellular; details: lysate
[6] = molecular target: Ephrin type-A receptor 7 (Homo sapiens) (UniProt Q15375); test: Selectivity interaction (ActivX KiNativ screen (kinase selectivity in THP-1 cell lysates)) EUB0000639a EPHA7; assay type: subcellular; details: lysate
[7] = molecular target: Protein polybromo-1 (Homo sapiens) (UniProt Q86U86); test: Selectivity interaction (Bromodomain panel (DSF asssay)) EUB0000270b PBRM1
[8] = molecular target: Mitogen-activated protein kinase 3 (Homo sapiens, UniProt P27361); test: Selectivity interaction (KinomeScan (DiscoverX)) EUB0000229b MAPK3; details: at 10 µM
[9] = molecular target: Amine oxidase [flavin-containing] A (Homo sapiens, UniProt P21397); test: Selectivity interaction (Monoamine Oxidase A, human recombinant baculovirus ) EUB0000877a MAOA
[10] = molecular target: Mitogen-activated protein kinase 14 (Homo sapiens, UniProt Q16539); test: Selectivity interaction (KinomeScan (DiscoverX)) EUB0000666a MAPK14; details: at 10 µM
[11] = molecular target: Serine/threonine-protein kinase MRCK alpha (Homo sapiens) (UniProt Q5VT25); test: Selectivity interaction (Kinase panel (Z-LYTE Assay)) EUB0001632a CDC42BPA; details: at 10 µM
[12] = molecular target: Interleukin-1 receptor-associated kinase 1 (Homo sapiens) (UniProt P51617); test: Selectivity interaction (KinomeScan (DiscoverX)) EUB0000695a IRAK1; details: at 100 nM
[13] = molecular target: T2, Dual specificity mitogen-activated protein kinase kinase 6 (Homo sapiens) (UniProt P52564); test: Selectivity interaction (KinomeScan (DiscoverX)) EUB0000695a MAP2K6; details: at 100 nM
T2 sequence (whole entry): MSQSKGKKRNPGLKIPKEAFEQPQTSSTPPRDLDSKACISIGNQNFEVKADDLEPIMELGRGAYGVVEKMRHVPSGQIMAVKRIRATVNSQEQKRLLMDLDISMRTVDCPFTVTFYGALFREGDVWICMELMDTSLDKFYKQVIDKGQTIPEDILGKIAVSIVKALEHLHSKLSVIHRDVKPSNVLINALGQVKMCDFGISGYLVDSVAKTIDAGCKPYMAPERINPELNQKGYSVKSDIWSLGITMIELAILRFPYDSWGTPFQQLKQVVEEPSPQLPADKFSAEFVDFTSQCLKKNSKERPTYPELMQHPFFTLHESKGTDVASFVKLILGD

Chain of Ephrin type-A receptor 7 (Homo sapiens) (Q15375 28-998 limits assumed): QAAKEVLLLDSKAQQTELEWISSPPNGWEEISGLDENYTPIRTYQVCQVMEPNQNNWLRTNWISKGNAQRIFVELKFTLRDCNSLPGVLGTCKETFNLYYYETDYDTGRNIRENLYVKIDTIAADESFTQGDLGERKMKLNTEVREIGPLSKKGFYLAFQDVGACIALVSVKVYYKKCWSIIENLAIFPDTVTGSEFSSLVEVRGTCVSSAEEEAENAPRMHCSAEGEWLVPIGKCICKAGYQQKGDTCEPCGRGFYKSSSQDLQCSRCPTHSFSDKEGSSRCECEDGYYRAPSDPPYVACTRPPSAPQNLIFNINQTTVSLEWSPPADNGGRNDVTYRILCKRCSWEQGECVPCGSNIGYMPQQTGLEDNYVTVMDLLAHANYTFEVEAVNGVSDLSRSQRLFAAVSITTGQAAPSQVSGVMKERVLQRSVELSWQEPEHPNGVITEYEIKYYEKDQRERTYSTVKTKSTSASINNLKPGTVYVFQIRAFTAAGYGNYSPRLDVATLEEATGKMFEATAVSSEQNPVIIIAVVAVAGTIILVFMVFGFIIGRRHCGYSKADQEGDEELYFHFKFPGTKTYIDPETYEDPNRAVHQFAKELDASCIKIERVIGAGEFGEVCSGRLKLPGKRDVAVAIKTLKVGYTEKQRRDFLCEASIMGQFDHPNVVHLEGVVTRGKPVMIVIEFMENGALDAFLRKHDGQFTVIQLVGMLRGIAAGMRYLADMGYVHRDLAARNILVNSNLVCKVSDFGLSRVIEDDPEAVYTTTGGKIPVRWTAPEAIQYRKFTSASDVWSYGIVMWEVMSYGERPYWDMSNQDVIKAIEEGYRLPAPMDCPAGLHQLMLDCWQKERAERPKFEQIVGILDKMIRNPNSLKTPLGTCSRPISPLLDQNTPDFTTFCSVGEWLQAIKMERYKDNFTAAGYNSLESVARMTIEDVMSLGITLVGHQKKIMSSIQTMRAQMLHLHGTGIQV
Chain of Casein kinase I isoform gamma-2 (Homo sapiens) (P78368 whole entry, looked up, canonical isoform): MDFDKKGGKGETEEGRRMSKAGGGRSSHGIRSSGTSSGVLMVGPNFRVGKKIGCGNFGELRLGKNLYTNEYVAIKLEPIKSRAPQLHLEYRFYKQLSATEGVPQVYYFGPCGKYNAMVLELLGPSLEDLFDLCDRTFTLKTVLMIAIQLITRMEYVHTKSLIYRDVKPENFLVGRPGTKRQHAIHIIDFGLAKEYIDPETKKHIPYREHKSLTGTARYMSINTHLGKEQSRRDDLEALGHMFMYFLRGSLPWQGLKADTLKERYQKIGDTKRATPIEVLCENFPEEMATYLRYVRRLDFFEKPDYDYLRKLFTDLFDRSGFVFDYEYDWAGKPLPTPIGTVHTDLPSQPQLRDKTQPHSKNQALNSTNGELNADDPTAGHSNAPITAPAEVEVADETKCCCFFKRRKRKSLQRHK
Chain of Activated CDC42 kinase 1 (Q07912 whole entry, looked up): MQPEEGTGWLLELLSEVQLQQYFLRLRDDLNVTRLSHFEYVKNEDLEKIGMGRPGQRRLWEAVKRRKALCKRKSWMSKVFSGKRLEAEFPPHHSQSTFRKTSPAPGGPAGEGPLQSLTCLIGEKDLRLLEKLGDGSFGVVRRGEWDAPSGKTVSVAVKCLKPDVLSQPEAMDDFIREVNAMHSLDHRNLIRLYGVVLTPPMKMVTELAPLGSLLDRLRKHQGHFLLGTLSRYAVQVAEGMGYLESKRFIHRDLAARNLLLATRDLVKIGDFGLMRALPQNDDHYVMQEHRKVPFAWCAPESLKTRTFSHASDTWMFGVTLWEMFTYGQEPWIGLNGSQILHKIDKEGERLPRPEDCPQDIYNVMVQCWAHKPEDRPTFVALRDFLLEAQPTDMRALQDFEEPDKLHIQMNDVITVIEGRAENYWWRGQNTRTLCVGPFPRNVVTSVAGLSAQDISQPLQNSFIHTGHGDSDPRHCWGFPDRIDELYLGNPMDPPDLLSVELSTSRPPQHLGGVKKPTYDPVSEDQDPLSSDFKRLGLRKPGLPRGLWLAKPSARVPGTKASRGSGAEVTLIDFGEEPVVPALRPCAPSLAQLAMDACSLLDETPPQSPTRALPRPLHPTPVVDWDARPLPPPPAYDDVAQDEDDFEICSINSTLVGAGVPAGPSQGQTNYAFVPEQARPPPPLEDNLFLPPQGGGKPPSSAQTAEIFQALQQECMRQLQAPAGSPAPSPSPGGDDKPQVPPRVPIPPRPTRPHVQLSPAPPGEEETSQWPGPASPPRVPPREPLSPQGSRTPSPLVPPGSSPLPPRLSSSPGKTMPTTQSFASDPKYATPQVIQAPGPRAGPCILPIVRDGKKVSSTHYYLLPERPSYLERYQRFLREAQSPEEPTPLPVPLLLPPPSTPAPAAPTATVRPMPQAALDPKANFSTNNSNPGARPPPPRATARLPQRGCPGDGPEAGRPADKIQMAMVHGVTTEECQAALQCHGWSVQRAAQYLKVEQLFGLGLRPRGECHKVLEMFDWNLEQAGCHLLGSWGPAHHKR
Chain of Calcium/calmodulin-dependent protein kinase type 1D (Homo sapiens) (Q8IU85 whole entry, looked up, canonical isoform): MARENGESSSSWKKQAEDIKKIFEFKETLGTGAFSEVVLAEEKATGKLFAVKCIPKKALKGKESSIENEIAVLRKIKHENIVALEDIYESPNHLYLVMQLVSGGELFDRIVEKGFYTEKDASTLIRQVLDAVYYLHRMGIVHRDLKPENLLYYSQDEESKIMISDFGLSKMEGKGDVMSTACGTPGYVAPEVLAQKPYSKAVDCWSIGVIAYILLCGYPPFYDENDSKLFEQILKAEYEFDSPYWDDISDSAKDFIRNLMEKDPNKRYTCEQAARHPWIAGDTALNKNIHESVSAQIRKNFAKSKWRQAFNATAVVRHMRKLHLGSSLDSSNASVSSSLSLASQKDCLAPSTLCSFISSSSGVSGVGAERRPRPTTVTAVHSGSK
Chain of Mitogen-activated protein kinase 3 (P27361 whole entry): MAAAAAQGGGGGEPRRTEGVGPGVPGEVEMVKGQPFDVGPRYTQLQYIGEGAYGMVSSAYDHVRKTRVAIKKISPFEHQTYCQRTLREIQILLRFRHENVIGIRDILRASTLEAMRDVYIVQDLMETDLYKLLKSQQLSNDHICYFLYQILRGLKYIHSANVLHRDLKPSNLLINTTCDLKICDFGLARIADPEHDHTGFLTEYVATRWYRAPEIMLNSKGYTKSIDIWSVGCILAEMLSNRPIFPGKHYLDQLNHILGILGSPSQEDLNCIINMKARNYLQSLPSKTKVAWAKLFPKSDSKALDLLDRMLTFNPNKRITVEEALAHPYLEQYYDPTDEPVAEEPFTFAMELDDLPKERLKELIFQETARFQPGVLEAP
Chain of Macrophage-stimulating protein receptor (Q04912 25-304 limits assumed): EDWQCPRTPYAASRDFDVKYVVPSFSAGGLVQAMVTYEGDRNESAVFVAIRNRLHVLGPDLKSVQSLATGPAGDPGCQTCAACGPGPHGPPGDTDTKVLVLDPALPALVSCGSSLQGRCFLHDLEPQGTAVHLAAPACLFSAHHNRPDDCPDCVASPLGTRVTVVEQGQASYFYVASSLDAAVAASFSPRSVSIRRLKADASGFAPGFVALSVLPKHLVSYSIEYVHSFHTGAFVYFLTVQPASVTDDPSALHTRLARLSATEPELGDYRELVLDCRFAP
Chain of Macrophage-stimulating protein receptor (Q04912 310-1400 limits assumed): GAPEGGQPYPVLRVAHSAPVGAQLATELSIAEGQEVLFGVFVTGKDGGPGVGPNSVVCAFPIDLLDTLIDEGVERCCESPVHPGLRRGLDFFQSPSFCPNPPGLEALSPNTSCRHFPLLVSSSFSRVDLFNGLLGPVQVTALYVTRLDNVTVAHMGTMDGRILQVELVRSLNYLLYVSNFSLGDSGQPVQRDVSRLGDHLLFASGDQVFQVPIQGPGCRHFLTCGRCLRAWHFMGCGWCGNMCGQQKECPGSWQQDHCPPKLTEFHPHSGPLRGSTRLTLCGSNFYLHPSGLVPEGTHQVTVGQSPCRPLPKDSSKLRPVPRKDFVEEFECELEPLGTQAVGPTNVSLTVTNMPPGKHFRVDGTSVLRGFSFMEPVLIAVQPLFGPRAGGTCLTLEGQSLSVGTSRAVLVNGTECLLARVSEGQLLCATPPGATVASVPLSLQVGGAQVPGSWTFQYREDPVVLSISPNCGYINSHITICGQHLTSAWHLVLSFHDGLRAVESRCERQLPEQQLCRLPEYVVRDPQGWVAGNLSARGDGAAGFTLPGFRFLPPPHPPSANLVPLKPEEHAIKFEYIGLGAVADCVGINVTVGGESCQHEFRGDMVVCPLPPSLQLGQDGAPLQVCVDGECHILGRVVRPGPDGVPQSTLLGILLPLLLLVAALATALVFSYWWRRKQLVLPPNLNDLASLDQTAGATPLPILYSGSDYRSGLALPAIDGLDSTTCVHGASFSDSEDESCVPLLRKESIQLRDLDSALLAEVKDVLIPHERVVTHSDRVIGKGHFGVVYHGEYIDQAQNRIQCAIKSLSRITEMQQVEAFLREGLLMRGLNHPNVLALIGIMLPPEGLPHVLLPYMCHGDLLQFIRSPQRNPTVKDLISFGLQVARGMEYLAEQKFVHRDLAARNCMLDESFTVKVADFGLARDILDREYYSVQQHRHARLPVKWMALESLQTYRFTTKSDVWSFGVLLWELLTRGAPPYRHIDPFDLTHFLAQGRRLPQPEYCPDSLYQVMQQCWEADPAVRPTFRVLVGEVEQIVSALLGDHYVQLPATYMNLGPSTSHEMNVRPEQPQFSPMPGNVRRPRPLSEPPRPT
Chain of Mitogen-activated protein kinase 14 (Q16539 whole entry): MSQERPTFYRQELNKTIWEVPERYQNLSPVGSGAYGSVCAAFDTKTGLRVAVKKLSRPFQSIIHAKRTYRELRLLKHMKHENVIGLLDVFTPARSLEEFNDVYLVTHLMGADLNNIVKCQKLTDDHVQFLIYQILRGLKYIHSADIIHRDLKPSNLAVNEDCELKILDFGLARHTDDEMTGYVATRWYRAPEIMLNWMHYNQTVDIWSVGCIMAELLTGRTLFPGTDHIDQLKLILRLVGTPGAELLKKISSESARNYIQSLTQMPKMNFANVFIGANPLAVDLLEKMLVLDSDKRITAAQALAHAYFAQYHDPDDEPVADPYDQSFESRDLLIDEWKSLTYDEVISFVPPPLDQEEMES

CC(=O)c1cc(-c2ccccc2OCC2CC2)c2ncccn12
% of control [1]: 84%

Cc1cc(C)cc([C@H]2c3cc(C)ccc3NC(=O)CN2C(=O)c2ccc(Br)s2)c1
% of activity ([2]; at 1 µM): 104%
% of activity ([2]; at 10 µM): 99%

CN(C)C/C=C/C(=O)Nc1ccc(C(=O)N2CCCC(Nc3ncc(Cl)c(-c4c[nH]c5ccccc45)n3)C2)cc1 (stereo not drawn)
% of control (Activated CDC42 kinase 1): 99%

O[C@H]1CC[C@H](Nc2ncc3nc(Nc4c(F)cc(F)cc4F)n([C@H]4CCOC4)c3n2)CC1
% of control [3]: 100%

CC[C@@H]1[C@H](F)C(=O)N[C@@H]1COc1nccc2cc(C(N)=O)c(OC)cc12 [ZIMLOVISERTIB]
% of inhibition [4]: -15.2%
% of inhibition ([5]; at 0.01 µM): 4.3%
% of inhibition ([5]; at 0.04 µM): 27.3%
% of inhibition ([5]; at 0.2 µM): 67%
% of inhibition ([5]; at 1 µM): 91%
% of inhibition ([5]; at 5 µM): 96.9%
% of inhibition ([6]; at 0.01 µM): -8.6%
% of inhibition ([6]; at 0.04 µM): 21.7%
% of inhibition ([6]; at 0.2 µM): 20.8%
% of inhibition ([6]; at 1 µM): -6.5%
% of inhibition ([6]; at 5 µM): 20.6%

Cc1cc(CN)cc(C)c1-c1ncn(C)c1-c1cncn1C
dTM [7]: -1.74 K

COc1cc(N(C)c2ccnc3ccc(C(F)(F)F)cc23)cc(OC)c1OC
% binding [8]: 100%

CCC(=O)N1CC[C@H](Nc2ncnc3c2CN(c2cnc(OC)c(C(F)(F)F)c2)CC3)C1 [LENIOLISIB]
IC50 [9]: > 30 µM

O=C(NOC[C@H](O)CO)c1ccc(F)c(F)c1Nc1ccc(I)cc1F
% of control [10]: 100%

Cn1cc(-n2cnc3c(NCc4nc5cc(Cl)c(Cl)cc5[nH]4)nc(N4CCOCC4)nc32)cn1
% of control [11]: -5.27%

Cc1cc(F)c(C(=O)Nc2cccc(-c3nncn3C(C)C)n2)cc1-n1cnc(C2CC2)c1
% of control [12]: 96%
% of control [13]: 100%
